# In the RepoRT retention time repository (doi:10.1093/pcp/pcn183):
# Where a name gives a salt, the structure may show the parent alone.
# Assay: RP, Waters ACQUITY UPLC BEH C18, 38 °C, 0.24 mL/min; A: water + 0.1% formic acid, pH 3; B: acetonitrile + 0.1% formic acid, pH 3; gradient (min/%B) 0/0 0.25/0 0.4/9 0.8/17 1.9/100 2.1/100 2.11/0 3/0
# Settings: stereoisomer not certain
row,Compound,LC retention time
1,Nc1nc2c(ncn2C2OC(CO)C(O)C2O)c(=O)[nH]1 (stereo unspecified) [Guanosine],1.08 min
2,O=C(O)Cc1cc(O)ccc1O [Homogentisic acid],1.1 min
3,O=C(O)C1=CCNCC1 [Isoguvacine hydrochloride],0.18 min
4,NC(CCSCC(N)C(=O)O)C(=O)O (stereo not drawn) [L(+)-Cystathionine],0.16 min
5,CC[C@H](N)C(=O)O [L-2-Aminobutyric acid],0.18 min
6,N[C@@H](Cc1ccccc1)C(=O)O [L-(-)-Phenylalanine],1.09 min
7,C[C@H](N)C(=O)O [L-Alanine],0.17 min
8,C[N+](C)(C)C[C@H](O)CC(=O)[O-] [L-Carnitine hydrochloride],0.18 min
9,NCCC(=O)NC(Cc1cnc[nH]1)C(=O)O [L-Carnosine],0.16 min
10,NC(=O)NCCC[C@H](N)C(=O)O [L-Citrulline],0.18 min
11,NC(=O)CC[C@H](N)C(=O)O [L-Glutamine],0.17 min
12,NC(CCC(=O)NC(CS)C(=O)NCC(=O)O)C(=O)O [L-Glutathione (reduced form)],0.95 min
13,N[C@@H](Cc1cnc[nH]1)C(=O)O [L-Histidine],0.15 min
14,N[C@H](CO)Cc1cnc[nH]1 [L-Histidinol dihydrochloride],0.14 min
15,N[C@@H](CCO)C(=O)O [L-Homoserine],0.17 min
16,"CC(C)CC(N)C(=O)O [L-Leucine, (Cell Culture Reagent, Crystalline)]",0.53 min
17,CCCC[C@H](N)C(=O)O [L-Norleucine],0.57 min
18,CCC[C@H](N)C(=O)O [L-Norvaline],0.25 min
19,O=C1CC[C@@H](C(=O)O)N1 [L-Pyroglutamic acid],0.41 min
20,N[C@@H](CO)C(=O)O [L-Serine],0.16 min
21,C[C@@H](O)[C@H](N)C(=O)O [L-Threonine],0.17 min
22,CC(C)[C@H](N)C(=O)O [L-Valine],0.25 min
23,CC[C@H](C)[C@H](N)CC(=O)O [L-beta-Homoisoleucine hydrochloride],1.1 min
24,N[C@H](CC(=O)O)Cc1ccccc1 [L-beta-Homophenylalanine hydrochloride],1.16 min

row,Compound,LC retention time
1,CSCC[C@H](N)CC(=O)O [L-beta-homomethionine-HCl],0.66 min
2,NC(CO)CC(=O)O [L-beta-homoserine [(R)-3-Amino-4-hydroxy-butyric acid (+)]],0.16 min
3,C[C@@H](O)[C@H](N)CC(=O)O [L-beta-homothreonine],0.19 min
4,CC(C)C(N)CC(=O)O [L-beta-homovaline-HCl],0.55 min
5,CC(=O)NC(CC(C)C)C(=O)NC(CC(C)C)C(=O)NC(C=O)CCCN=C(N)N (stereo unspecified) [Leupeptin hemisulfate salt],1.42 min
6,COc1ccc(-c2cc(=O)c3c(O)cc(OC4OC(COC5OC(C)C(O)C(O)C5O)C(O)C(O)C4O)cc3o2)cc1 (stereo unspecified) [Linarin],1.54 min
7,COc1cc(-c2[o+]c3cc(O)cc(O)c3cc2O)cc(OC)c1O [Malvidin Chloride],2.15 min
8,COc1cc(-c2[o+]c3cc(O)cc(OC4OC(CO)C(O)C(O)C4O)c3cc2OC2OC(CO)C(O)C(O)C2O)cc(OC)c1O (stereo unspecified) [Malvin chloride],1.15 min
9,CS(=O)(=O)O [Methanesulfonic acid solution],0.17 min
10,CCC=CCC1C(=O)CCC1CC(=O)OC (stereo unspecified) [Methyl Jasmonate],1.93 min
11,CN=C(N)N [Methylguanidine hydrochloride],0.18 min
12,CC(C(=O)O)C(=O)O [Methylmalonic acid],0.54 min
13,CC(=O)NCCCNCCCCNCCCN [N1-Acetylspermine Trihydrochloride],0.14 min
14,"CN(C)c1ccccc1 [N,N-Dimethylaniline]",1.11 min
15,CC=C(C)C(=O)NCC(=O)O [N-Tigloylglycine],1.18 min
16,CC(=O)NCCCCN [N-acetyl putrescine hydrochloride],0.23 min
17,"CC(=O)NC1C(O)CC(O)(C(=O)O)OC1C(O)C(O)CO (stereo unspecified) [N-acetylneuraminic acid,Type IV-S,Synthetic]",0.18 min
18,C[N+](C)(C)CCOP(=O)(O)O [O-Phosphocholine],0.17 min
19,CC(=O)OC[C@H](N)C(=O)O [O-acetyl-L-serine hydrochloride],0.19 min
20,COc1ccc(-c2coc3cc(OC4OC(CO)C(O)C(O)C4O)ccc3c2=O)cc1 (stereo unspecified) [Ononin],1.52 min
21,OCC1OC(OCC2OC(O)(CO)C(O)C2O)C(O)C(O)C1O (stereo unspecified) [Palatinose Monohydrate],0.19 min
22,OCC1OC(Oc2cc3c(OC4OC(CO)C(O)C(O)C4O)cc(O)cc3[o+]c2-c2ccc(O)cc2)C(O)C(O)C1O (stereo unspecified) [Pelargonin chloride],1.14 min
23,O=C(O)CNC(=O)Cc1ccccc1 [Phenaceturic acid],1.36 min
24,O=C(CCc1ccc(O)cc1)c1c(O)cc(O)cc1OC1OC(CO)C(O)C(O)C1O (stereo unspecified) [Phloridzin],1.49 min

# Now from value to compound:
row,LC retention time,Compound
1,0.27 min,Nc1nc2c(ncn2C2OC(COP(=O)(O)OP(=O)(O)OC3OC(CO)C(O)C(O)C3O)C(O)C2O)c(=O)[nH]1 [Guanosine-5'-diphosphate-D-mannose sodium salt]
2,0.44 min,Nc1nc2c(ncn2C2OC(COP(=O)(O)O)C(O)C2O)c(=O)[nH]1 (stereo unspecified) [Guanosine-5'-monophosphate]
3,1.81 min,CCCCCCCCCCCCCCCCC [Heptadecane]
4,1.45 min,COc1ccc(C2CC(=O)c3c(O)cc(OC4OC(COC5OC(C)C(O)C(O)C5O)C(O)C(O)C4O)cc3O2)cc1O (stereo unspecified) [Hesperidin]
5,1.21 min,CCCCCCN [Hexylamine]
6,1.49 min,CC(C)c1cccc(O)c(=O)c1 [Hinokitiol]
7,1.29 min,O=C(O)CNC(=O)c1ccccc1 [Hippuric Acid]
8,0.14 min,NCCc1cnc[nH]1 [Histamine]
9,1.33 min,COc1cc(CC(=O)O)ccc1O [Homovanillic acid]
10,1.4 min,O=c1c(OC2OC(CO)C(O)C(O)C2O)c(-c2ccc(O)c(O)c2)oc2cc(O)cc(O)c12 (stereo unspecified) [Hyperoside]
11,0.16 min,NCCS(=O)O [Hypotaurine]
12,1.51 min,O=Cc1c[nH]c2ccccc12 [Indole-3-carboxyaldehyde]
13,1.7 min,COc1cc(-c2oc3cc(O)cc(O)c3c(=O)c2O)ccc1O [Isorhamnetin]
14,1.09 min,C=C(CC(=O)O)C(=O)O [Itaconic acid]
15,1.19 min,O=C(O)c1cc(=O)c2ccccc2[nH]1 [Kynurenic acid]
16,0.16 min,NC(N)=NCCCC(N)C(=O)O (stereo not drawn) [L(+)-Arginine]
17,0.15 min,NCCCC[C@H](N)C(=O)O [L-(+)-Lysine]
18,0.23 min,O=C(O)CC(O)C(=O)O [L-(-)-Malic acid]
19,1.15 min,O=C1O[C@H]([C@@H](O)CO)C(O)=C1O [L-Ascorbic acid]
20,0.16 min,NC(=O)C[C@H](N)C(=O)O [L-Asparagine]
21,0.16 min,NCCCC(=O)NC(Cc1cnc[nH]1)C(=O)O [L-Homocarnosine]
22,1.1 min,Nc1ccccc1C(=O)CC(N)C(=O)O [L-Kynurenine]

row,LC retention time,Compound
1,0.18 min,CS(=O)(=O)CCC(N)C(=O)O [L-Methionine sulfone]
2,0.31 min,CSCC[C@H](N)C(=O)O [L-Methionine]
3,0.14 min,NCCC[C@H](N)C(=O)O [L-Ornithine monohydrochloride]
4,0.19 min,O=C(O)[C@@H]1CCCN1 [L-Proline]
5,1.16 min,N[C@@H](Cc1c[nH]c2ccccc12)C(=O)O [L-Tryptophane]
6,0.61 min,N[C@@H](Cc1ccc(O)cc1)C(=O)O [L-Tyrosine]
7,0.25 min,O=C(O)C[C@@H]1CCCN1 [L-beta-homoproline-HCl]
8,0.22 min,OCC1OC(OC2C(CO)OC(OC3C(CO)OC(O)C(O)C3O)C(O)C2O)C(O)C(O)C1O (stereo unspecified) [Maltotriose hydrate]
9,1.35 min,CNC1(C)C2CCC(C2)C1(C)C (stereo unspecified) [Mecamylamine hydrochloride]
10,1.32 min,N=c1nc(N2CCCCC2)cc(N)n1O [Minoxidil]
11,0.51 min,"CN(C)C=O [N,N-Dimethylformamide(DMF)]"
12,0.56 min,"CCCCCCCCCCCCCCCC(O)C(CO)NC(=O)CCCCCCC [N-Octanoylsphinganine,D-erythro]"
13,0.18 min,CC(=O)N[C@@H]1C(O)O[C@H](CO)[C@@H](O)[C@@H]1O (stereo partly drawn) [N-acetyl-D-mannosamine]
14,0.33 min,CC(=O)OC(CC(=O)O)C[N+](C)(C)C [O-Acety-L-carnitine hydrochloride]
15,0.16 min,NCCOP(=O)(O)O [O-Phosphorylethanolamine]
16,1.29 min,COc1cc(-c2[o+]c3cc(O)cc(O)c3cc2OC2OC(CO)C(O)C(O)C2O)cc(OC)c1O (stereo unspecified) [Oenin]
17,1.35 min,O=c1cc(-c2ccc(O)c(O)c2)oc2c(C3OC(CO)C(O)C(O)C3O)c(O)cc(O)c12 (stereo unspecified) [Orientin]
18,0.7 min,O=c1[nH]c(=O)c2cn[nH]c2[nH]1 [Oxypurinol]
19,0.16 min,O=S(=O)(O)CCN1CCN(CCS(=O)(=O)O)CC1 [PIPES]
20,1.3 min,COc1cc(-c2[o+]c3cc(O)cc(O)c3cc2OC2OCC(O)C(O)C2O)ccc1O (stereo not drawn) [Peonidin-3-O-alpha-arabinopyranoside]
21,1.22 min,COc1cc(-c2[o+]c3cc(O)cc(O)c3cc2OC2OC(CO)C(O)C(O)C2O)cc(O)c1O (stereo not drawn) [Petunidin-3-O-beta-glucopyranoside]
